Experimental data: US9149038B2, “4-amino-6-(heterocyclic)picolinates and 6-amino-2-(heterocyclic)pyrimidine-4-carboxylates and their use as herbicides” (Dow AgroSciences LLC, priority 2013, dated 2015)
Read-outs that look alike come from different tables or passages of the source.

What was measured:
[1] = tested on: Key Broadleaf Weed and Crop Species; assay: Post-Emergent Test II: postemergent herbicidal activity, visual rating after 14 d (Table 7); format: in vivo; conditions: post-emergence, 336 h; for pest or weed control at 35 g/ha: 35 g ai/ha; for pest or weed control at 70 g/ha: 70 g ai/ha; for pest or weed control at 140 g/ha: 140 g ai/ha
Outline: (§1)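 Post-emergence foliar spray, 187 L/ha, first/second true leaf stage plants in potting mix (pH 6.0-6.8). Rates: top rate and 2-fold serial dilutions to 1/16×. Solvent-blank controls. Readout: visual % kill at 14 d.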

[2] = tested on: Key Grass and Sedge Weeds as well as Grass Crops; assay: Post-Emergent Test II: postemergent herbicidal activity, visual rating after 14 d (Table 8); format: in vivo; conditions: post-emergence, 336 h; for pest or weed control at 35 g/ha: 35 g ai/ha; for pest or weed control at 70 g/ha: 70 g ai/ha; for pest or weed control at 140 g/ha: 140 g ai/ha
Outline: as §1

[3] = lambsquarters (Chenopodium album), read-out: Visual Growth Reduction (%) 14 Days After Application CHEAL
[4] = oilseed rape, canola (Brassica napus), read-out: Visual Growth Reduction (%) 14 Days After Application BRSNN
[5] = redroot pigweed (Amaranthus retroflexus), read-out: Visual Growth Reduction (%) 14 Days After Application AMARE
[6] = sunflower (Helianthus annuus), read-out: Visual Growth Reduction (%) 14 Days After Application HELAN
[7] = velvetleaf (Abutilon theophrasti), read-out: Visual Growth Reduction (%) 14 Days After Application ABUTH
[8] = wild poinsettia (Euphorbia heterophylla), read-out: Visual Growth Reduction (%) 14 Days After Application EPHHL
[9] = barnyardgrass (Echinochloa crus-galli), read-out: Visual Growth Reduction (%) 14 Days After Application ECHCG
[10] = giant foxtail (Setaria faberi), read-out: Visual Growth Reduction (%) 14 Days After Application SETFA
[11] = maize, corn (Zea mays), read-out: Visual Growth Reduction (%) 14 Days After Application ZEAMX
[12] = rice (Oryza sativa), read-out: Visual Growth Reduction (%) 14 Days After Application ORYSA
[13] = wheat, spring (Triticum aestivum), read-out: Visual Growth Reduction (%) 14 Days After Application TRZAS
[14] = yellow nutsedge (Cyperus esculentus), read-out: Visual Growth Reduction (%) 14 Days After Application CYPES

Compound | pest or weed control at 35 g/ha [1, 3] [%] | pest or weed control at 70 g/ha [1, 3] [%] | pest or weed control at 140 g/ha [1, 3] [%] | pest or weed control at 35 g/ha [1, 4] [%] | pest or weed control at 70 g/ha [1, 4] [%] | pest or weed control at 140 g/ha [1, 4] [%] | pest or weed control at 35 g/ha [1, 5] [%] | pest or weed control at 70 g/ha [1, 5] [%] | pest or weed control at 140 g/ha [1, 5] [%] | pest or weed control at 35 g/ha [1, 6] [%] | pest or weed control at 70 g/ha [1, 6] [%] | pest or weed control at 140 g/ha [1, 6] [%] | pest or weed control at 35 g/ha [1, 7] [%] | pest or weed control at 70 g/ha [1, 7] [%] | pest or weed control at 140 g/ha [1, 7] [%] | pest or weed control at 35 g/ha [1, 8] [%] | pest or weed control at 70 g/ha [1, 8] [%] | pest or weed control at 140 g/ha [1, 8] [%] | pest or weed control at 35 g/ha [2, 9] [%] | pest or weed control at 70 g/ha [2, 9] [%] | further results
CC1(C)Oc2ccc(-c3nc(C(=O)O)c(Cl)c(N)c3F)cc2O1 [Compound 19] | 0 to 29 | 0 to 29 | 0 to 29 | 0 to 29 | 45 to 59 | 60 to 74 | 85 to 94 | 85 to 94 | 85 to 94 | 0 to 29 | 0 to 29 | 30 to 44 | 0 to 29 | 60 to 74 | 60 to 74 | 95 to 100 | 95 to 100 | 95 to 100 | 85 to 94 | 85 to 94 | pest or weed control at 140 g/ha [2, 9]: 95 to 100%; pest or weed control at 35 g/ha [2, 10]: 0 to 29%; pest or weed control at 70 g/ha [2, 10]: 0 to 29%; pest or weed control at 140 g/ha [2, 10]: 0 to 29%; pest or weed control at 35 g/ha [2, 11]: 60 to 74%; pest or weed control at 70 g/ha [2, 11]: 60 to 74%; pest or weed control at 140 g/ha [2, 11]: 60 to 74%; pest or weed control at 35 g/ha [2, 12]: 0 to 29%; pest or weed control at 70 g/ha [2, 12]: 0 to 29%; pest or weed control at 140 g/ha [2, 12]: 0 to 29%; pest or weed control at 35 g/ha [2, 13]: 0 to 29%; pest or weed control at 70 g/ha [2, 13]: 0 to 29%; pest or weed control at 140 g/ha [2, 13]: 0 to 29%; pest or weed control at 35 g/ha [2, 14]: 95 to 100%; pest or weed control at 70 g/ha [2, 14]: 95 to 100%; pest or weed control at 140 g/ha [2, 14]: 95 to 100%
COc1c(C(=O)O)nc(-c2ccc3c(c2)OC(F)(F)O3)c(F)c1N [Compound 25] | 0 to 29 | 0 to 29 | 45 to 59 | 75 to 84 | 95 to 100 | 95 to 100 | 0 to 29 | 0 to 29 | 0 to 29 | 0 to 29 | 0 to 29 | 0 to 29 | 45 to 59 | 60 to 74 | 75 to 84 | 95 to 100 | 95 to 100 | 95 to 100 | 85 to 94 | 85 to 94 | pest or weed control at 140 g/ha [2, 9]: 95 to 100%; pest or weed control at 35 g/ha [2, 10]: 45 to 59%; pest or weed control at 70 g/ha [2, 10]: 60 to 74%; pest or weed control at 140 g/ha [2, 10]: 60 to 74%; pest or weed control at 35 g/ha [2, 11]: 60 to 74%; pest or weed control at 70 g/ha [2, 11]: 75 to 84%; pest or weed control at 140 g/ha [2, 11]: 75 to 84%; pest or weed control at 35 g/ha [2, 12]: 0 to 29%; pest or weed control at 70 g/ha [2, 12]: 30 to 44%; pest or weed control at 140 g/ha [2, 12]: 60 to 74%; pest or weed control at 35 g/ha [2, 13]: 45 to 59%; pest or weed control at 70 g/ha [2, 13]: 45 to 59%; pest or weed control at 140 g/ha [2, 13]: 60 to 74%; pest or weed control at 35 g/ha [2, 14]: 95 to 100%; pest or weed control at 70 g/ha [2, 14]: 95 to 100%; pest or weed control at 140 g/ha [2, 14]: 95 to 100%
